According to ChEMBL document CHEMBL1201862, “PubChem BioAssay data set” (2004):
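Method: 48-hour compound exposure of cells in 96-well plates, five concentrations, linear interpolation of endpoints. Abbreviation: GI50, concentration required for 50% inhibition of growth.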 Calls of active or inactive are those of the source. Rule as the data show it: active = GI50 up to about 1.1 µM and inactive = higher.

Legend:
Assay in all cases: growth of human tumour cells (NCI), 48 h
786-0 = test system: 786-0
A549 = test system: A549
CAKI-1 = test system: CAKI-1
CCRF-CEM = test system: CCRF-CEM
DU-145 = test system: DU-145
HCT-116 = test system: HCT-116
HCT-15 = test system: HCT-15
Hs-578T = test system: Hs-578T
IGROV-1 = test system: IGROV-1
KM12 = test system: KM12
NCI-H460 = test system: NCI-H460
OVCAR-3 = test system: OVCAR-3
RPMI-8226 = test system: RPMI-8226
SF-539 = test system: SF-539
SK-MEL-28 = test system: SK-MEL-28
SN12C = test system: SN12C
SNB-19 = test system: SNB-19
SW-620 = test system: SW-620
T47D = test system: T47D
UACC-62 = test system: UACC-62

SMILES | GI50 (786-0) | GI50 (A549) | GI50 (CAKI-1) | GI50 (CCRF-CEM) | GI50 (DU-145) | GI50 (HCT-116) | GI50 (HCT-15) [µM] | GI50 (Hs-578T) | GI50 (IGROV-1) | GI50 (KM12) | GI50 (NCI-H460) | GI50 (OVCAR-3) | GI50 (RPMI-8226) | GI50 (SF-539) | GI50 (SK-MEL-28) | GI50 (SN12C) | GI50 (SNB-19) | GI50 (SW-620) | GI50 (T47D) | GI50 (UACC-62)
Cc1[nH]c2[nH]c(=S)nc(NC(N)=S)c2c1Cc1ccccc1 | 26.8 µM (inactive) | 75.5 µM (inactive) | 98.6 µM (inactive) | 21.9 µM (inactive) | 49.5 µM (inactive) | 31.8 µM (inactive) | 58.6 | 18.9 µM (inactive) | 59 µM (inactive) | 16.4 µM (inactive) | 48.6 µM (inactive) | 28 µM (inactive) | 12.7 µM (inactive) | 37.2 µM (inactive) | 21.9 µM (inactive) | > 100 µM (inactive) | 97.9 µM (inactive) | 34 µM (inactive) | 21.8 µM (inactive) | 29.9 µM (inactive)
CC1CCC2(OC1)OC1CC3C4CC=C5CC(OC6OC(CO)C(OC7OC(C)C(OC8OC(C)C(O)C(O)C8O)C(O)C7O)C(O)C6OC6OC(C)C(O)C(O)C6O)CCC5(C)C4CCC3(C)C1C2C (stereo not given) | 1.07 µM (active) | 0.312 µM (active) | 1.29 µM (inactive) | 0.0643 µM (active) | 1.28 µM (inactive) | 0.521 µM (active) | 1.51 | 0.264 µM (active) | 1.3 µM (inactive) | 0.16 µM (active) | 1.61 µM (inactive) | 1.75 µM (inactive) | 0.382 µM (active) | 0.394 µM (active) | 0.612 µM (active) | 0.267 µM (active) | 0.262 µM (active) | 1.48 µM (inactive) | 1.24 µM (inactive) | 0.311 µM (active)
O=C1C(Br)=Cc2c(Cl)sc(Cl)c21 | 1.77 µM (inactive) | 24.6 µM (inactive) | 3.05 µM (inactive) | 0.232 µM (active) | 5.42 µM (inactive) | 2.03 µM (inactive) | 3.69 | 21.8 µM (inactive) | 2.59 µM (inactive) | 6.5 µM (inactive) | 18.3 µM (inactive) | 2.67 µM (inactive) | 0.668 µM (active) | 4.24 µM (inactive) | 11.6 µM (inactive) | 5.51 µM (inactive) | 18.9 µM (inactive) | 2.19 µM (inactive) | 2.42 µM (inactive) | 7.91 µM (inactive)
COC(=O)NC1C(C)OC(OC2C/C=C(/C)C3C=CC4C(OC5CC(OC6CC(O)C(OC7CC(O)C(OC)C(C)O7)C(C)O6)C(O)C(C)O5)C(C)CC(C)C4C3(C)C(=O)C3=C(O)C4(CC(C)C(CO)=CC4/C=C\2C)OC3=O)CC1(C)[N+](=O)[O-] (stereo not given) | 9.93 µM (inactive) | 22.6 µM (inactive) | 19.4 µM (inactive) | 2.79 µM (inactive) | 11.6 µM (inactive) | 5.36 µM (inactive) | 18 | 10.9 µM (inactive) | 8.93 µM (inactive) | 14.5 µM (inactive) | 12.3 µM (inactive) | 6.84 µM (inactive) | 3.13 µM (inactive) | 16.9 µM (inactive) | 11.2 µM (inactive) | 12.9 µM (inactive) | 19.1 µM (inactive) | 9.86 µM (inactive) | 11.5 µM (inactive) | 6.37 µM (inactive)
CCC(C)(C)c1ccc(Oc2cccc(C(=O)O)c2)cc1 | 89.3 µM (inactive) | 38.2 µM (inactive) | 65.6 µM (inactive) | 28.9 µM (inactive) | 97.1 µM (inactive) | 41.5 µM (inactive) | 39.5 | 44 µM (inactive) | > 100 µM (inactive) | 47.1 µM (inactive) | 44.4 µM (inactive) | 26.7 µM (inactive) | 28.8 µM (inactive) | 33.5 µM (inactive) | 81.8 µM (inactive) | 56.4 µM (inactive) | 85.5 µM (inactive) | 53 µM (inactive) | 33.7 µM (inactive) | 34.6 µM (inactive)
CC(=O)OCCCCN1C(=O)CSc2ccccc21 | > 10 µM (inactive) | > 100 µM (inactive) | > 100 µM (inactive) | > 100 µM (inactive) | > 100 µM (inactive) | > 100 µM (inactive) | > 100 | > 100 µM (inactive) | > 100 µM (inactive) | > 100 µM (inactive) | > 100 µM (inactive) | > 100 µM (inactive) | > 100 µM (inactive) | > 100 µM (inactive) | > 100 µM (inactive) | > 100 µM (inactive) | > 100 µM (inactive) | > 100 µM (inactive) | > 100 µM (inactive) | > 100 µM (inactive)
CC(C)=CCNc1ncnc2[nH]cnc12 | > 100 µM (inactive) | > 100 µM (inactive) | > 100 µM (inactive) | > 100 µM (inactive) | > 100 µM (inactive) | > 100 µM (inactive) | > 100 | > 100 µM (inactive) | > 100 µM (inactive) | 99.8 µM (inactive) | > 100 µM (inactive) | > 100 µM (inactive) | > 100 µM (inactive) | > 100 µM (inactive) | > 100 µM (inactive) | > 100 µM (inactive) | > 100 µM (inactive) | > 100 µM (inactive) | > 100 µM (inactive) | 88.5 µM (inactive)
